Converted amounts (≈) assume the structure as drawn.
How the values were obtained:
hTRPV3 [1] = target: T1, hTRPV3 (Homo sapiens (Human), UniProt Q8NET8); experiment: FLIPR Assay (calcium flux, HEK293 cells stably expressing TRPV3); assay type: cell-based
Experimental: In Tables 3 and 4, Phase 1 refers to Phase 1 current for human (h) TRPV3 or rat (r) TRPV3, and Phase 2 refers to Phase 2 current for human (h) TRPV3 or rat (r) TRPV3. The hTRPV3 and rTRPV3 assays were performed as described herein. hERG refers to the inhibition the human ERG (hERG) channel. NaV1.5, refers to the pore forming aL-subunit of the voltage-dependent cardiac Na(+) channel and is an integral membrane protein involved in the initiation and conduction of action potentials. hTRPV3 HAMA IC50 refers to the IC50 of TRPV3 cells stably expressed in TRex-293 cells. Solubility Ringer refers to the compounds' solubility in Ringer's solution. LM T1/2 refers to liver microsome half-lives in either rat or human liver microsomes. FLIPR IC50 refers to the IC50 of the test compounds against recombinant hTRPV3 cells.
The cells were treated with IBSS and 20 mM HEPES adjusted to pH 7.4 in the presence of the fluorescent calcium indicator e.g. Fluo-4AM (5 uM) and the plates were incubated at 37° C. and […] for approximately 1 hour and cooled to room temperature. […] Relative Fluorescence Units (RFU) were measured for each response for signal maximum minus minimum during approximately 90 seconds after addition.

hTRPV3 [2] = target: T1, hTRPV3; experiment: hTRPV3 HAMA IC50 assay (Hamamatsu FDSS6000 calcium flux, TRex-293 cells); conditions: read-out: hTRPV3 HAMA IC50; 2-APB stimulated calcium flux
Experimental: IC50s were calculated using CBIS from ChemInnovation (San Diego).

hTRPV3 [3] = target: T1, hTRPV3; experiment: Whole-cell patch clamp, hTRPV3 Phase 1 / Phase 2 currents; assay type: cell-based; conditions: Phase 1 current
Method in brief: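 Whole-cell recordings on induced TRPV3 cells replated on coverslips, held at −40 mV with 400 ms ramps from −120 to +100 mV every 5 s; currents read at −80 and +80 mV. Ringer's external solution; current activated by heating to ≥28 °C or 20 μM 2-APB.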

human hERG channels = human hERG channels (Homo sapiens (Human), UniProt Q12809); experiment: hERG assay (patch clamp, CHO cells); assay type: cell-based; conditions: (PL); read-out: hERG (nM) (PL)
Experimental: hERG assay: Briefly, cells from a stable CHO cell line expressing human hERG channels were plated onto glass coverslips and used in patch clamp assays on the same day. After seal formation and break-in to whole-cell configuration, voltage steps were applied as follows: from the holding potential of −90 mV, a 2 second long step to +40 mV was applied, followed by a 1.5 second step to −50 mV. These steps were applied once every 5 seconds. The hERG current was measured at the peak of the outward tail current at −50 mV. The pipette solution was potassium aspartate based and the external solution was normal Ringer's.
All currents were recorded in whole-cell configuration using an Axopatch 200B controlled by pClamp 10 software (Molecular Devices). In each cell, when the current stabilized, the compound was perfused locally onto the cell. Two to three concentrations of the test compound were applied to each cell. At the end of compound testing, 10 μM verapamil was applied to completely block hERG currents and assess leak current.
Data were analyzed by computing the degree of current block after compound addition compared with the unblocked current amplitude. The unblocked current was predicted from the interpolation between the current amplitude prior to compound addition and after compound washout. The resulting percent block at each concentration was used to make a concentration-response plot and fitted to the Hill equation: percent block=minimum block+(maximum block-minimum block)/(1+10^(Hill slope*(log IC50−concentration))).

[4] = Metabolic Stability assay, rat liver microsomes; assay type: in vitro ADME; conditions: read-out: LM T1/2 (min) rat
Method in brief: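 Test article at 1 μM starting concentration incubated with human or rat liver microsomes at 37 °C, with the reaction started by NADPH regeneration components. Aliquots were quenched in cold acetonitrile/MeOH/H2O at 0, 7, 15, 30 and 60 min and analysed by HPLC/MS/MS.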

[5] = Aqueous solubility assay in Normal Ringer Solution; conditions: Normal Ringer Solution, saline or isotonic, kinetic from dmso stock
Experimental: Following vortex and incubation for a sufficient time (e.g. 40 minutes at room temperature), solutions were filtered, quenched with acetonitrile, and analyzed by Liquid Chromotography. Solubility Limits were determined by comparison to a standard curve.

T1 sequence (Q8NET8 whole entry): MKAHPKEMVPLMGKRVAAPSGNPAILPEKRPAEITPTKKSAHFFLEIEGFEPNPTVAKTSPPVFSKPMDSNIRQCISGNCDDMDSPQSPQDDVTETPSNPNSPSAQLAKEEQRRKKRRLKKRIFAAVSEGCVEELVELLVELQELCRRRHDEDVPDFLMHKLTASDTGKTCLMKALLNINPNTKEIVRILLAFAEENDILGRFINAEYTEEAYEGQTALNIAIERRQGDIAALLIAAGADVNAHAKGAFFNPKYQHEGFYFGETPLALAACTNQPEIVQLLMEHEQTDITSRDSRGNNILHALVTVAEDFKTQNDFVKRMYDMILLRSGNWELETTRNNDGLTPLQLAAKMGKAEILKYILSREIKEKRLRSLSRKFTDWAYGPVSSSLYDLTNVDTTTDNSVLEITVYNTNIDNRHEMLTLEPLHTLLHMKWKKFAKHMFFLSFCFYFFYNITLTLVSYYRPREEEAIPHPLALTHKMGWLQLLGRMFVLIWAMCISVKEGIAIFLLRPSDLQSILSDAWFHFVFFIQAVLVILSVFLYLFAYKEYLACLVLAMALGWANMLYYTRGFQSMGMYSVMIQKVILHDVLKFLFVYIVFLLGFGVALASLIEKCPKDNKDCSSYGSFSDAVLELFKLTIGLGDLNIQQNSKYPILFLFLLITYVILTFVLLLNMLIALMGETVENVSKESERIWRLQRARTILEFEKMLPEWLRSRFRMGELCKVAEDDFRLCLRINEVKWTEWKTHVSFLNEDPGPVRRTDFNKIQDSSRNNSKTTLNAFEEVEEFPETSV
Chain of human hERG channels (Q12809 whole entry): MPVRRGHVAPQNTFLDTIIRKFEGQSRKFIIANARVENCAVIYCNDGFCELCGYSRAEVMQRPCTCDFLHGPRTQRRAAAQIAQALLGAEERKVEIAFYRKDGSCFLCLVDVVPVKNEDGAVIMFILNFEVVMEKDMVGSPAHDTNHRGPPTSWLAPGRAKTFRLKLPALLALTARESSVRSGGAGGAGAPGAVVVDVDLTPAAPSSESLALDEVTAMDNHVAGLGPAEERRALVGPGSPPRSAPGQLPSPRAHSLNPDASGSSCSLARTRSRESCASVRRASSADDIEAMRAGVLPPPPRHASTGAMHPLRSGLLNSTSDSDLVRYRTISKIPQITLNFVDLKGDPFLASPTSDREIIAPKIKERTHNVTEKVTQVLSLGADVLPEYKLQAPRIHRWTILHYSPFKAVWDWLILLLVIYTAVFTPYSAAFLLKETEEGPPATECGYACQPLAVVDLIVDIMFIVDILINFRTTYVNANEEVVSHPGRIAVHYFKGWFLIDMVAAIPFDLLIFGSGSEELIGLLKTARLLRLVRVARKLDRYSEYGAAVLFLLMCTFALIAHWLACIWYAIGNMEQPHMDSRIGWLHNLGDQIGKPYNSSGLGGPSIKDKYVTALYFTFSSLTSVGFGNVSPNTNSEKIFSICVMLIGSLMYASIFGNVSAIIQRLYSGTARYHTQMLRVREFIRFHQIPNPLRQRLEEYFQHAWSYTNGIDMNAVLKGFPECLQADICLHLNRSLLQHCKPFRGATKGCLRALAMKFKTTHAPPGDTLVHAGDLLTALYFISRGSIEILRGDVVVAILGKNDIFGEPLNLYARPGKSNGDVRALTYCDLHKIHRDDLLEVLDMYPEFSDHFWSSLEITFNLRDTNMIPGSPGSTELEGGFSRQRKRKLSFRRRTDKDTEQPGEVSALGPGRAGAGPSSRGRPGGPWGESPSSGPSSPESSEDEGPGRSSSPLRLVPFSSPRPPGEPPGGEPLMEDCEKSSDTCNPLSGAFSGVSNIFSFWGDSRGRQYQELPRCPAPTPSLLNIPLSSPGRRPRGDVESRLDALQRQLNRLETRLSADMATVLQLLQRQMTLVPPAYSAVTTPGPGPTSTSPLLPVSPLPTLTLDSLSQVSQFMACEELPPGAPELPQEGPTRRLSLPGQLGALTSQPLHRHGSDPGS

## O=C(c1ccc(CO)nn1)N1CCC(c2ccc(-c3ccccc3C3CC3)cc2CO)C1 (stereo not shown) [Compound 2-138]
hTRPV3 [1]; read-out: FLIPR IC50
  IC50: > 10 µM

## COc1ncc(C(=O)N2CCC(c3ccc(-c4ccccc4C4CC4)cc3CO)C2)nc1C (stereo not shown) [Compound 2-126]
hTRPV3 [1]; read-out: FLIPR IC50
  IC50: 1.18 µM
hTRPV3 [2]
  IC50: 0.084 µM

## COCc1ccnc(C(=O)N2CCC(c3ccc(-c4ccccc4C4CC4)cc3CO)C2)c1 (stereo not shown) [Compound 2.155]
hTRPV3 [1]; read-out: FLIPR IC50
  IC50: 9.25 µM

## Cc1nc(C(=O)N2CCC(c3ccc(-c4ccccc4C4CC4)cc3CO)C2)ccc1CO (stereo not shown) [Compound 2-144]
hTRPV3 [1]; read-out: FLIPR IC50
  IC50: 3.27 µM

## Cn1cnc(C(=O)N2CCC(c3ccc(-c4ccccc4C4CC4)cc3CO)C2)c1 (stereo not shown) [Compound 2-161]
hTRPV3 [1]; read-out: FLIPR IC50
  IC50: 9.52 µM

## Cn1ccnc1C(=O)N1CCC(c2ccc(-c3ccccc3C3CC3)cc2CO)C1 (stereo not shown) [Compound 2-164]
hTRPV3 [1]; read-out: FLIPR IC50
  IC50: > 10 µM

## CC(C)c1ccccc1Oc1ccc(C2CCN(Cc3ccccn3)C2)c(CO)c1 (stereo not shown) [Compound 2-87, (5-(2-isopropylphenoxy)-2-(1-(pyridin-2-ylmethyl)pyrrolidin-3-yl)phenyl)methanol]
hTRPV3 [3]; human TRPV3, read-out: hTRPV3 (nM) Phase 1
  IC50: 699 nM
hTRPV3 [3]; inward, whole-cell patch clamp, read-out: hTRPV3 Patch P1 Inwd
  IC50: 100 to 1000 nM
Human hERG channels
  IC50: 260 nM
[4]
  half-life at 1 μM: 2.46 min

## O=C(c1ccc(O)cn1)N1CCC(c2ccc(-c3ccccc3C3CC3)cc2CO)C1 (stereo not shown) [Compound 2-135]
hTRPV3 [1]; read-out: FLIPR IC50
  IC50: 3.09 µM

## COc1cncc(C(=O)N2CCC(c3ccc(-c4ccccc4C4CC4)cc3CO)C2)n1 (stereo not shown) [Compound 2.151]
hTRPV3 [1]; read-out: FLIPR IC50
  IC50: 0.78 µM

## Cc1coc(C(=O)N2CCC(c3ccc(-c4ccccc4C4CC4)cc3CO)C2)n1 (stereo not shown) [Compound 2.146]
hTRPV3 [1]; read-out: FLIPR IC50
  IC50: 5.95 µM

## O=C(c1ncon1)N1CCC(c2ccc(-c3ccccc3C3CC3)cc2CO)C1 (stereo not shown) [Compound 2-127]
hTRPV3 [1]; read-out: FLIPR IC50
  IC50: 1.9 µM
hTRPV3 [2]
  IC50: 0.13 µM

## O=C(c1nccnc1O)N1CCC(c2ccc(-c3ccccc3C3CC3)cc2CO)C1 (stereo not shown) [Compound 2.150]
hTRPV3 [1]; read-out: FLIPR IC50
  IC50: > 10 µM

## O=C(c1ncc(Cl)cn1)N1CCC(c2ccc(-c3ccccc3C3CC3)cc2CO)C1 (stereo not shown) [Compound 2-159]
hTRPV3 [1]; read-out: FLIPR IC50
  IC50: 5.18 µM

## Cc1nc(C(=O)N2CCC(c3ccc(-c4ccccc4C4CC4)cc3CO)C2)cnc1O (stereo not shown) [Compound 2-136]
hTRPV3 [1]; read-out: FLIPR IC50
  IC50: 5.17 µM

## Cn1ccc(C(=O)N2CCC(c3ccc(-c4ccccc4C4CC4)cc3CO)C2)n1 (stereo not shown) [Compound 2-163]
hTRPV3 [1]; read-out: FLIPR IC50
  IC50: > 10 µM

## O=C(c1ccc(O)nn1)N1CCC(c2ccc(-c3ccccc3C3CC3)cc2CO)C1 (stereo not shown) [Compound 2-133]
hTRPV3 [1]; read-out: FLIPR IC50
  IC50: > 10 µM

## CN1CCc2nc(C(=O)N3CCC(c4ccc(-c5ccccc5C5CC5)cc4CO)C3)sc2C1 (stereo not shown) [Compound 2-165]
hTRPV3 [1]; read-out: FLIPR IC50
  IC50: > 10 µM

## Cc1nc(C(=O)N2CCC(c3ccc(-c4ccccc4C4CC4)cc3CO)C2)ccc1O (stereo not shown) [Compound 2-143]
[5]
  solubility at 40 min: 0.0183 µM (≈ 7.84 ng/mL)
hTRPV3 [1]; FLIPR IC50 (uM)
  IC50: 0.86 µM
hTRPV3 [2]
  IC50: 0.0103 µM

— patent US12435061B2 (priority 2020, dated 2025)
